Experimental data reported in PubChem BioAssay (NCI).
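Briefly, cells in 96-well plates were exposed to five compound concentrations for 48 h, and endpoints were estimated by linear interpolation. TGI denotes the concentration required for complete inhibition of growth.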

Key:
Assay in all cases: growth of human tumour cells (NCI), 48 h
786-0 renal = system: 786-0 renal
A498 renal = system: A498 renal
A549 NSCLC = system: A549 NSCLC
ACHN renal = system: ACHN renal
BT-549 breast = system: BT-549 breast
CAKI-1 renal = system: CAKI-1 renal
CCRF-CEM leukemia = system: CCRF-CEM leukemia
COLO 205 colon = system: COLO 205 colon
DU-145 prostate = system: DU-145 prostate
EKVX NSCLC = system: EKVX NSCLC
HCC-2998 colon = system: HCC-2998 colon
HCT-116 colon = system: HCT-116 colon
HCT-15 colon = system: HCT-15 colon
HL-60(TB) leukemia = system: HL-60(TB) leukemia
HOP-62 NSCLC = system: HOP-62 NSCLC
HOP-92 NSCLC = system: HOP-92 NSCLC
HS 578T breast = system: HS 578T breast
HT29 colon = system: HT29 colon
IGROV1 ovarian = system: IGROV1 ovarian
K-562 leukemia = system: K-562 leukemia
KM12 colon = system: KM12 colon
LOX IMVI melanoma = system: LOX IMVI melanoma
M14 melanoma = system: M14 melanoma
MALME-3M melanoma = system: MALME-3M melanoma
MCF7 breast = system: MCF7 breast
MDA-MB-231 breast = system: MDA-MB-231 breast
MDA-MB-435 = system: MDA-MB-435
MOLT-4 leukemia = system: MOLT-4 leukemia
NCI-H226 lung = system: NCI-H226 lung
NCI-H23 lung = system: NCI-H23 lung
NCI-H460 lung = system: NCI-H460 lung
NCI-H522 lung = system: NCI-H522 lung
NCI/ADR-RES ovarian = system: NCI/ADR-RES ovarian
OVCAR-4 ovarian = system: OVCAR-4 ovarian
OVCAR-5 ovarian = system: OVCAR-5 ovarian
OVCAR-8 ovarian = system: OVCAR-8 ovarian
RPMI-8226 leukemia = system: RPMI-8226 leukemia
RXF 393 renal = system: RXF 393 renal
SF-268 CNS = system: SF-268 CNS
SF-295 CNS = system: SF-295 CNS
SF-539 CNS = system: SF-539 CNS
SK-MEL-2 melanoma = system: SK-MEL-2 melanoma
SK-MEL-5 melanoma = system: SK-MEL-5 melanoma
SK-OV-3 ovarian = system: SK-OV-3 ovarian
SN12C renal = system: SN12C renal
SNB-19 CNS = system: SNB-19 CNS
SNB-75 CNS = system: SNB-75 CNS
SR leukemia = system: SR leukemia
SW-620 colon = system: SW-620 colon
T-47D breast = system: T-47D breast
TK-10 renal = system: TK-10 renal
U251 CNS = system: U251 CNS
UACC-257 melanoma = system: UACC-257 melanoma
UACC-62 melanoma = system: UACC-62 melanoma
UO-31 renal = system: UO-31 renal

Measured: TGI

O=[N+]([O-])c1ccc2nc(=S)[nH]n2c1
> 100 µM: all assays above
